Broadly, the IC50 is the point on the concentration scale where inhibition reaches its midpoint.

Each structure is given as a SMILES string. The source made the active and inactive calls. No rule for the calls is given here.

This test has as its target glucose-6-phosphate dehydrogenase-6-phosphogluconolactonase (Plasmodium falciparum 3D7). Put plainly: PfG6PD enzyme inhibitors, direct NADPH readout, dose response, orthogonal assay, biochemical, end-point NADPH detection (AID 540252). The note with it: purified PfG6PD enzyme.
As to `CC(=O)Nc1cc2c(cc1[N+](=O)[O-])-c1ccccc1C2O` (stereo unspecified), the IC50 is 74.5 µM.

On to `CCN(CC)C(=S)SSC(=S)N(CC)CC`, for which the IC50 was > 80 µM (inactive).

With `Cc1ccccc1-n1sc2cc(F)ccc2c1=O`, the IC50 was 8.11 µM. The figure for `CN1/C(=C\C(=O)c2cccs2)Sc2ccccc21` is > 80 µM (inactive); for `CCN1CCCC1CNC(=O)c1ccc2c(c1)NC(=O)/C(=C\c1ccc(C)cc1)S2` (stereo unspecified) it is > 80 µM (inactive); for `Cc1ccc(NS(=O)(=O)c2ccccc2Cl)c2c1CC(C)(C)O2` it is > 80 µM (inactive).

In the case of `COc1ccc(-c2cn3cc(C)ccc3n2)cc1Br`, the IC50 is > 80 µM (inactive). On to `Cc1[nH]c2ccccc2c1/C=N/NC(=O)c1cccc(S(=O)(=O)Nc2ccccc2Cl)c1`, for which the IC50 is > 80 µM (inactive). The figure for `Cc1cccc(C(=O)Nc2sc3c(c2C(=O)O)CCCC3)c1` is > 80 µM (inactive); for `O=C(COc1cccc2ccccc12)Nc1ccc(Cl)cc1C(=O)O` it is > 80 µM (inactive); for `CN1CCc2cccc3c2[C@H]1Cc1ccc(O)c(O)c1-3` it is > 80 µM (inactive). For `CCc1c(C(=O)Nc2ccccc2)c(C)[nH]c(=S)c1C#N`, the IC50 was > 80 µM (inactive).

Consider `COC1(OC)C=CC(=O)C=C1NC(=O)c1ccccc1OC(C)=O`, for which the IC50 is > 80 µM (inactive). The figure for `CN(C)C=Nc1ccc2nc3c(cc2c1)[nH]c1ccccc13` is > 80 µM (inactive); for `CCOC(=O)c1c(C2COc3ccccc3O2)csc1NC(=O)c1ccco1` (stereo unspecified) it is > 80 µM (inactive); for `O=C(Nc1sc2c(c1C(=O)O)CCC2)c1ccc(F)cc1` it is > 80 µM (inactive). In the case of `Cc1nc2ccccn2c1-c1ccnn1S(=O)(=O)c1ccc(F)cc1` it was > 80 µM (inactive); in that of `COc1ccc(NC(=S)N(CCC(C)C)C2CCN(C(C)C)CC2)cc1Cl`, > 80 µM (inactive); in that of `C[C@H](NC(=O)c1cc2c(cn1)[nH]c1ccccc12)C(=O)O`, > 80 µM (inactive). Turning to `O=C(Nc1nnc(S(=O)(=O)N2CCCCCC2)s1)c1cccc(Br)c1`, the IC50 was > 80 µM (inactive). In the case of `O=C(Nc1ccc(N2CCOCC2)c(Cl)c1)c1ccc(Cl)cc1` it was > 80 µM (inactive); in that of `Cc1ccc(/C=C2\C(=O)NC(=S)N(c3ccccc3F)C2=O)s1`, > 80 µM (inactive); in that of `CCOc1ccc(N(CC(=O)N/N=C/c2cc([N+](=O)[O-])ccc2Cl)S(C)(=O)=O)cc1`, > 80 µM (inactive).

For the compound `COc1ccc(CN(C)S(=O)(=O)c2nnc(NC(=O)c3cccc(C)c3)s2)cc1OC`, the IC50 was > 80 µM (inactive).

Consider `CC1=CC(C)(C)Nc2ccc(OC(=O)CN3C(=O)CCC3=O)cc21`, for which the IC50 was > 80 µM (inactive).

As to `Cc1ccc2nc(-c3ccc(NC(=S)NC4CC(C)(C)NC(C)(C)C4)cc3)sc2c1`, the IC50 was > 80 µM (inactive). In the case of `O=C1Nc2cc(C(=O)NCCCN3CCCC3)ccc2S/C1=C/c1cccc(Cl)c1` it was > 80 µM (inactive); in that of `OCCN1CCN(C(=S)c2ccc(Cl)c(Cl)c2)CC1`, > 80 µM (inactive).

On to `Cc1noc(C(=O)Nc2sc3c(c2C#N)CCC3)c1Cl`, for which the IC50 is > 80 µM (inactive). Take `COc1cc(/C=C2\SC(c3ccc(C)cc3)=NC2=O)cc(OC)c1O`: the IC50 was > 80 µM (inactive). As to `O=C(Cn1sc2ccccc2c1=O)Nc1ccccc1`, the IC50 was 15.6 µM. The figure for `COc1c(O)c(O)c2oc(-c3ccccc3)cc(=O)c2c1OC` is > 80 µM (inactive); for `Cn1cc(S(=O)(=O)CC(=O)N2CCc3ccccc32)c2ccccc21` it is > 80 µM (inactive). In the case of `COc1cc(N(C)C)ccc1C=c1c2ccccc2n2c1cc(-c1ccccc1)[n+]2C` it was > 80 µM (inactive). As to `CCN=c1scc(C)n1/N=C/c1ccc(O)c(O)c1O`, the IC50 was > 80 µM (inactive).

For the compound `CN(C)Cc1cc(O)c(CN(C)C)cc1O`, the IC50 is > 80 µM (inactive). The figure for `O=C(Cn1sc2ccccc2c1=O)Nc1ccc(Br)cc1` is 22.4 µM; for `CC1=CC(C)(C)Nc2ccc(OC(=O)CN3C(=O)c4cccc5cccc(c45)C3=O)cc21` it is > 80 µM (inactive); for `CCCCC1C(=O)N(c2ccccc2)N(c2ccc(O)cc2)C1=O` (stereo unspecified) it is > 80 µM (inactive). The figure for `COc1ccc(-n2sc3ccccc3c2=O)cc1` is 13.3 µM; for `Cc1nnc(N/N=C\c2ccc(-c3cccc(C(=O)O)c3)o2)n1N` it is > 80 µM (inactive); for `N#Cc1ccc2sn(-c3ccccc3)c(=O)c2c1` it is 15.2 µM. In the case of `CCN1CCCC1CNC(=O)c1ccc2c(c1)NC(=O)/C(=C\c1ccccc1Cl)S2` (stereo unspecified) it was > 80 µM (inactive); in that of `COc1ccc(C(=O)c2c(C(F)(F)F)oc3c2C(=O)c2ccccc2C3=O)cc1OC`, > 80 µM (inactive). In the case of `COc1cc(CN2CCN(CCCc3ccccc3)C(CCO)C2)cc(OC)c1O` (stereo unspecified), the IC50 is > 80 µM (inactive). Regarding `COc1cccc(C(=O)Nc2nnc(S(=O)(=O)N(C)Cc3ccccc3)s2)c1`, the IC50 was > 80 µM (inactive).

Consider `Cc1ccc(/C=C/C(=O)N2CCN(S(=O)(=O)c3ccc(C)c(C)c3)CC2)o1`, for which the IC50 is > 80 µM (inactive). In the case of `COC1=CC(=O)C=C(OC)C1(O)CC(C)=O` it was > 80 µM (inactive); in that of `CN(C)S(=O)(=O)c1cccc(-n2sc3ccccc3c2=O)c1`, 13.5 µM.

As to `COc1cc(NCCCn2cnc(C(=O)Nc3ccc(C)c(C)c3)n2)cc(OC)c1OC`, the IC50 is > 80 µM (inactive). The figure for `Nc1ccc2c3c(cccc13)-c1ccccc1-2` is > 80 µM (inactive); for `COc1ccc(C(=O)Nc2nnc(S(=O)(=O)N3CCOCC3)s2)cc1` it is > 80 µM (inactive); for `Cc1cccc(C2(c3cccc(C)c3)CC2C(=O)Nc2ccc([N+](=O)[O-])cc2O)c1` (stereo unspecified) it is > 80 µM (inactive). For the compound `CC(CNc1ccccc1O)C(=O)O` (stereo unspecified), the IC50 was > 80 µM (inactive). In the case of `O=c1c2cc([N+](=O)[O-])ccc2sn1-c1ccccc1` it was 13.9 µM. In the case of `O=C(Nc1ccccc1C(=O)N/N=C/c1ccco1)c1ccccc1Cl` it was > 80 µM (inactive); in that of `CNCc1ccccc1Sc1cc(O)ccc1O`, > 80 µM (inactive); in that of `O=C(Nc1nnc(S(=O)(=O)N2CCOCC2)s1)c1ccc(F)cc1`, > 80 µM (inactive). Take `Oc1ccc(C23CC4CC(CC(C4)C2)C3)cc1O`: the IC50 was 52 µM. The figure for `CN=c1scc(C)n1/N=C/c1ccc(O)c(O)c1O` is > 80 µM (inactive). In the case of `O=c1c2ccccc2sn1-c1ccc(S(=O)(=O)N2CCCCC2)cc1` it was > 80 µM (inactive); in that of `O=c1c2ccccc2sn1-c1cc(S(=O)(=O)N2CCOCC2)ccc1N1CCCC1`, 15.1 µM; in that of `COc1ccc(CNC(=O)Cc2cn(C)c3ccccc23)c(OC)c1`, > 80 µM (inactive).

Take `CCC(C)c1ccccc1OCCn1ccnc1` (stereo unspecified): the IC50 was > 80 µM (inactive). As to `COc1ccc(NC2CCCN(Cc3cccc4cnccc34)C2)cc1OC` (stereo unspecified), the IC50 was > 80 µM (inactive). Regarding `COc1ccccc1N1C(=O)C=C(Sc2nc(C)cc(C)n2)C1=O`, the IC50 is > 80 µM (inactive).

Values taken from PubChem BioAssay AID540252 (Sanford-Burnham Center for Chemical Genomics, 2011).
